ChEMBL document CHEMBL1909046, “DrugMatrix in vitro pharmacology data”

Legend:
Progesterone receptor = molecular target: T1, Progesterone receptor (Bos taurus, UniProt Q690N0); assay: DRUGMATRIX: Progesterone radioligand binding (ligand: [3H] R-5020); format: tissue-based, Uterus; conditions: Not Active = under 50% inhibition at 10 µM
T1 sequence (Q690N0 whole entry): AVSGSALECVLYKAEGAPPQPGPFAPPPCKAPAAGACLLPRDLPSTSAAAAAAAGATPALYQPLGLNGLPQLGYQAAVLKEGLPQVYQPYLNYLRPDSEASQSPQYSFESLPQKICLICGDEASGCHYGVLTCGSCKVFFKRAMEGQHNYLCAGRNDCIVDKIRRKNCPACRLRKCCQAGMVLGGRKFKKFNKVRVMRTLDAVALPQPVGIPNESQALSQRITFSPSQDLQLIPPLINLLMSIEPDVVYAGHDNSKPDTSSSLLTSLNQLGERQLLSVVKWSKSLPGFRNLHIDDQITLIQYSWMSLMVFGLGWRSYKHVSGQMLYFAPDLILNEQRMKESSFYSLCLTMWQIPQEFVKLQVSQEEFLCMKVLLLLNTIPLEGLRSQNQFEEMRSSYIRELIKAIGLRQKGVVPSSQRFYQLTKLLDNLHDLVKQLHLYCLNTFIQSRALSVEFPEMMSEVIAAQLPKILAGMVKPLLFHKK

[1] = DRUGMATRIX: GABAA, Flunitrazepam, Central radioligand binding (ligand: [3H] Flunitrazepam); format: cell membranes, Rattus norvegicus, Wistar, Brain, Membrane; conditions: Not Active = under 50% inhibition at 10 µM
[2] = molecular target: T2, C-X-C chemokine receptor type 2 (Homo sapiens, UniProt P25025); format: cell membranes, Membrane; conditions: cho-k1; further: in other assays of this panel Not Active means under 50% inhibition at 10 µM
T2 sequence (P25025 whole entry): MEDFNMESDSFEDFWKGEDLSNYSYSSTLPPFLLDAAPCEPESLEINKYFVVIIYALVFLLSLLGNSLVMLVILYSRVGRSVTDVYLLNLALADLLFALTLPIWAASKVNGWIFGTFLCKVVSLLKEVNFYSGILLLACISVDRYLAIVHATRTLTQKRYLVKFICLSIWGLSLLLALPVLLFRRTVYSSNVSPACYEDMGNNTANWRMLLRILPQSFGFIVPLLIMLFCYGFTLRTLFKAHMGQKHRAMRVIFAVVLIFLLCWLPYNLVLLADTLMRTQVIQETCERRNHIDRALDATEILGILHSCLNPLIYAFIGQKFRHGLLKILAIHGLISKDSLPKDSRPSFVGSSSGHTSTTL

Carbonic anhydrase 2 = Carbonic anhydrase 2 (Homo sapiens, UniProt P00918); assay: DRUGMATRIX: Carbonic Anhydrase II enzyme inhibition (substrate: 4-Nitrophenyl acetate (4-NPA)); format: tissue-based, Erythrocyte; conditions: erythrocyte; Not Active = under 50% inhibition at 10 µM
[3] = molecular target: T3, Neuropeptide Y receptor type 2 (Homo sapiens, UniProt P49146); format: cell membranes, Membrane; conditions: kan-ts; further: in other assays of this panel Not Active means under 50% inhibition at 10 µM
T3 sequence (P49146 whole entry): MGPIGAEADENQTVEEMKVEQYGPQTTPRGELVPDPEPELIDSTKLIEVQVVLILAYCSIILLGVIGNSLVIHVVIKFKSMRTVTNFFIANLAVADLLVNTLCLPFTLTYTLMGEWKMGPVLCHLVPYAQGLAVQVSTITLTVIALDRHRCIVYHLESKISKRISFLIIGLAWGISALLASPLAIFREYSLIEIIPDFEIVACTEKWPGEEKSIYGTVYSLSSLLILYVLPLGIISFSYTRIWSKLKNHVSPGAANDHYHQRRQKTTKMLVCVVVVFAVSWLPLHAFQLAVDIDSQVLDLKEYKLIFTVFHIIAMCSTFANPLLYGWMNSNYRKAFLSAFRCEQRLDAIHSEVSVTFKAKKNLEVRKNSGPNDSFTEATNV

[4] = molecular target: 5-hydroxytryptamine receptor 2B (Homo sapiens, UniProt P41595); format: cell membranes, CHO-K1, Membrane; further: in other assays of this panel Not Active means under 50% inhibition at 10 µM
5-hydroxytryptamine receptor 2B, sequence (P41595 whole entry): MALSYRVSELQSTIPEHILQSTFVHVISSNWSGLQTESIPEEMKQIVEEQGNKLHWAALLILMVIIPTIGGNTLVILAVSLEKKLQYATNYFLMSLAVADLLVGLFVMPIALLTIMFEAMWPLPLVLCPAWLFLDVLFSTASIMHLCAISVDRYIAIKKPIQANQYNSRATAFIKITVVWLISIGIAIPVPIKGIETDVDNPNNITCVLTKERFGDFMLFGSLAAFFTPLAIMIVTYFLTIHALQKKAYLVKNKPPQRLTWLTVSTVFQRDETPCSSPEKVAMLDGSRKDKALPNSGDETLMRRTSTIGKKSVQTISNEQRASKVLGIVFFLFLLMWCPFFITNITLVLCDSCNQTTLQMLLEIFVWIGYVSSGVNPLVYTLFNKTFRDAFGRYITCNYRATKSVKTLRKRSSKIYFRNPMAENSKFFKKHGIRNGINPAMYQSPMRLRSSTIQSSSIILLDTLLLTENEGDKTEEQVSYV

SMILES	IC50 (Progesterone receptor)	IC50 [1]	Ki [1]	IC50 [2]	IC50 (Carbonic anhydrase 2)	IC50 [3]	IC50 ([4]; cho-k1)	IC50 (Progesterone receptor; read-out: IC50) [nM]	Ki (Progesterone receptor; read-out: Ki) [nM]	IC50 ([1]; read-out: IC50) [nM]	Ki ([1]; read-out: Ki) [nM]	IC50 ([4]; read-out: IC50) [nM]	Ki ([4]; read-out: Ki) [nM]
CC(C)(C)NC(=O)[C@@H]1C[C@@H]2CCCC[C@@H]2CN1C[C@@H](O)[C@H](Cc1ccccc1)NC(=O)[C@H](CC(N)=O)NC(=O)c1ccc2ccccc2n1	Not Active	Not Active	Not Active	Not Active	Not Active	Not Active	Not Active						
CC(=O)[C@@]1(O)CC[C@H]2[C@@H]3C[C@H](C)C4=CC(=O)CC[C@]4(C)[C@H]3CC[C@@]21C		Not Active	Not Active	Not Active	Not Active	Not Active	Not Active	711	93				
N[C@@H](Cc1ccc(N(CCCl)CCCl)cc1)C(=O)O	Not Active	Not Active	Not Active	Not Active	Not Active	Not Active	Not Active						
CCCCc1oc2ccccc2c1C(=O)c1cc(I)c(OCCN(CC)CC)c(I)c1 [AMIODARONE]	Not Active			Not Active	Not Active	Not Active							
OCCN(CCO)c1nc(N2CCCCC2)c2nc(N(CCO)CCO)nc(N3CCCCC3)c2n1 [DIPYRIDAMOLE]	Not Active			Not Active	Not Active	Not Active	Not Active			382	311		
Cc1oncc1C(=O)Nc1ccc(C(F)(F)F)cc1 [LEFLUNOMIDE]	Not Active	Not Active	Not Active	Not Active	Not Active	Not Active	Not Active						
c1ccc([C@H]2CN3CCSC3=N2)cc1 [LEVAMISOLE]	Not Active	Not Active	Not Active	Not Active	Not Active	Not Active	Not Active						
N[C@@H](Cc1ccc(O)c(O)c1)C(=O)O [LEVODOPA]	Not Active	Not Active	Not Active	Not Active	Not Active	Not Active	Not Active						
N[C@@H](Cc1cc(I)c(Oc2ccc(O)c(I)c2)c(I)c1)C(=O)O [LIOTHYRONINE]	Not Active			Not Active	Not Active	Not Active	Not Active						
O=NN(CCCl)C(=O)NC1CCCCC1 [LOMUSTINE]	Not Active	Not Active	Not Active	Not Active	Not Active	Not Active	Not Active						
CCOC(=O)N1CCC(=C2c3ccc(Cl)cc3CCc3cccnc32)CC1 [LORATADINE]	Not Active	Not Active	Not Active	Not Active	Not Active	Not Active							
Cn1ccnc1S [METHIMAZOLE]	Not Active	Not Active	Not Active	Not Active	Not Active	Not Active	Not Active						
CC[C@@H](CO)NC(=O)[C@@H]1C=C2c3cccc4[nH]cc(c34)C[C@H]2N(C)C1 [METHYLERGONOVINE]	Not Active	Not Active	Not Active	Not Active	Not Active	Not Active						1.51	0.958
COc1nc(C)nc(Cl)c1NC1=NCCN1 [MOXONIDINE]	Not Active	Not Active	Not Active	Not Active	Not Active	Not Active	Not Active						
COc1c(C)c2c(c(O)c1C/C=C(\C)CCC(=O)O)C(=O)OC2 [MYCOPHENOLIC ACID]	Not Active	Not Active	Not Active	Not Active	Not Active	Not Active	Not Active						
